Experimental data: US20160317419A1, “METHOD OF IMPROVING SKIN HEALTH AND COMPOSITIONS THEREFOR” (The Procter & Gamble Company, priority 2015, published 2016)

What was measured:
Assay type in all cases: cell-based
keratinocytes = assay: ATP Assay: ATP depletion caused by hydrogen peroxide in keratinocytes (Cell Titer-Glo); settings: 1 hour
Experimental: The keratinocytes were cultured in T150 flasks using EPILIFE brand culture medium (calcium free and phenol red free, supplemented with penicillin/streptomycin and keratinocytes growth supplement, Invitrogen cat# […]500). The keratinocytes were then plated in 24 well plates with 40,000 cells/well and 1 ml of culture medium. After 24 hours, the keratinocytes were treated with 500 uM hydrogen peroxide alone, 400 uM niacinamide, 400 uM nicotinamide riboside or a combination of niacinamide and nicotinamide riboside (400 uM each) for 1 hour. Untreated keratinocytes were used as a control (i.e., keratinocytes in culture medium). The keratinocytes were washed in PBS and ATP levels were measured using the Cell Titer-Glo® brand ATP assay available from Promega, Madison, Wis. as catalogue # G7571/2/3 according to the manufacturer's instructions. Luminescence was measured on a SPECTRAMAX M3 brand microplate reader (Molecular Devices, Sunnyvale, Calif.). The net luminescence for a test sample is calculated by subtracting the observed luminescence value for the control from the observed luminescence value for the test sample.

[1] = test system: human dermal fibroblasts obtained from the BJ cell line; assay: ECAR Method: glycolytic ATP production rate of fibroblasts exposed to hydrogen peroxide; settings: for % Change from Control: vs media control
Experimental: Glycolytic ATP production by fibroblasts exposed to hydrogen peroxide was determined using an XF Extracellular Flux brand analyzer available from Seahorse Bioscience, Massachusetts The analyzer measured extracellular acidification rate (“ECAR”) in real time, which correlates to glycolytic ATP production. The cells used in this test were frozen human dermal fibroblasts obtained from the BJ cell line commercially available from ATCC, Bethesda, Md. […] The fibroblasts were plated at 8×10^4 cells per well in gelatin-coated plates 24 hours prior to testing. Each well included 100 μL of the culture medium described above. The gelatin-coated plates are prepared by coating each well in a multi-well plate (e.g., 24-well or 96-well plates available from Seahorse Biosciences, Massachusetts) with 0.2% gelatin (protein solution available from Sigma) diluted with phosphate buffered saline (“PBS”). The gelatin is diluted 1:10 to 0.2% in sterile PBS at 37° C., and then 50 uL of the diluted gelatin solution is added to each well and incubated at room temperature for 30 minutes. Excess liquid is removed by aspiration without touching the wells and the surface is allowed to dry for at least 2 hours. Hydrogen peroxide is a well-known ROS, and is used in this example as a source of oxidative stress on the fibroblasts being tested. A stressor solution of hydrogen peroxide was prepared at 10× working concentration in the fibroblast test medium described above. The test agents (i.e., nicotinamide riboside, niacinamide, and nicotinamide riboside+niacinamide in combination) were prepared at 10× the final working concentration in the fibroblast test medium to provide test agent solutions. The stressor solution and the test agent solutions were warmed to 37° C. and pH adjusted to 7.4. A fibroblast test medium was made from Dulbecco's Modified Eagle Medium (available from Seahorse Bioscience), 25 mM glucose and 1 mM pyruvate. The fibroblast test medium was warmed to 37° C. and the pH adjusted to 7.4. The cells were grown and plated at 37° C. and 5% CO2 air. The culture medium in the wells was replaced by the fibroblast test medium 1 hour prior to taking measurements. Each well contained approximately 8×10^4 cells and 600 μL of fibroblast test medium (i.e., DMEM, 25 mM glucose and 1 mM pyruvate) at 37° C. and pH 7.4. The plates containing the samples to be tested were loaded into the analyzer and equilibrated according to the manufacturer's instructions. The test agent solutions and stressor solution were each placed in an automated injection port of the XF cartridge plate. The analyzer was programmed to sequentially run a two minute mix cycle, a two minute wait cycle, and a 3 minute measurement cycle continuously for at least 88 minutes. Data points were collected and recorded by the analyzer. The analyzer was allowed to complete three cycles prior to the addition of a stressor solution or test agent solution to provide a basal ECAR value. After the third cycle was completed (i.e., about 21 minutes after detection began), the test solution and/or stressor solution was added to the wells by the analyzer from the appropriate injection port. A stressor solution was added to the well in sufficient amount to provide 1.5 mM hydrogen peroxide in the well. The test agent solution was added in sufficient amount to provide 250 μM or 500 μM niacinamide or nicotinamide riboside in the well.

[2] = test system: antioxidant response element (ARE); assay: ARE Assay (ARE-32 luciferase reporter cell line); settings: 24 hrs, control subtracted
Experimental: ARE activation was quantitated using the ARE-32 reporter cell line available from CXR-Biosciences as described in the ARE Assay below. ARE-32 is a stable MCF7 cell line containing pGL8x-ARE (8 copies of the rat GST ARE linked to the luciferase gene) and pCDNA3.1, which contains the neomycin selectable marker. Selection was performed in the presence of G418 and resistant clones were isolated. Clones were screened for induction of luciferase in response to tBHQ. The ARE-32 cells are maintained routinely in the DMEM (phenol red free) containing: 10% FBS, 50 units/ml penicillin & 50 μg/ml streptomycin, 0.8 mg/ml G418. Cells are subcultured every 3-4 days. Cells were frozen in medium that contains 90% FBS and 10% DMSO. In a 96 well-plate, seed 1×10^4 cells/well in 100 μl DMEM containing 50 units/ml penicillin, 50 μg/ml streptomycin, 0.8 mg/ml G418 and 10% FBS. Next, incubate the cells at 37° C. in a 5% CO2 incubator for 24 hrs, and then replace the medium with 100 μl fresh media. Treat with test compounds at 2 ul per well, positive control was 25 uM TBHQ. (10 mM tBHQ of stock solution freshly prepared in DMSO). Add 100 ul of media after treatment for a final assay volume of 200 uL. Incubate the cells at 37° C. in the CO2 incubator for another 24 hrs. Assay for luciferase activity with a STEADY-GLO brand assay system according to the manufacturer's instructions. A general schematic for how the ARE reporter assay operates to identify agents that promote transcription off the ARE is described in U.S. Publication No. 2011/0262570. The results of the test are illustrated in Table 1 and FIG. 3. The ARE activity for […] (“NR”), niacinamide (“N”) and the combination of nicotinamide riboside and niacinamide is reported as net luminescence in Table 1. Net luminescence for a test sample is determined by subtracting the luminescence value of the control from the luminescence value of the test sample. The calculated net luminescence for NR+N is the sum of the individual measured luminescence values for NR and N.

[3] = 400 uM (each) with 500 uM hydrogen peroxide
[4] = 500 μM test agent with 1.5 mM hydrogen peroxide

Compound | % depletion vs. control (ATP) (keratinocytes; [3]) [%] | Net Luminescence AVG (keratinocytes; [3]) | % depletion vs. control (ATP) (keratinocytes; 400 uM (each) with 500 uM hydrogen peroxide, listed as niacinamide) | Observed ECAR [1, 4] [mpH/min] | % Change from Control [1, 4] [%] | Net Luminescence ([2]; NR 0.011 w/v %, N 0.0125 w/v %) | Net Luminescence ([2]; NR 0.021 w/v %, N 0.025 w/v %) | Net Luminescence ([2]; NR 0.042 w/v %, N 0.05 w/v %) | Net Luminescence ([2]; NR 0.0842 w/v %, N 0.1 w/v %) | % depletion vs. control (ATP) (keratinocytes; 400 uM (each) with 500 uM hydrogen peroxide, listed as nicotinamide riboside) [%] | % depletion vs. control (ATP) (keratinocytes; 500 uM hydrogen peroxide alone) [%] | Net Luminescence AVG (keratinocytes; 500 uM hydrogen peroxide alone) | % depletion vs. control (ATP) (keratinocytes; 500 uM hydrogen peroxide alone, listed as H2O2) [%] | Observed ECAR ([1]; 1.5 mM hydrogen peroxide alone) [mpH/min] | % Change from Control ([1]; 1.5 mM hydrogen peroxide alone) [%]
NC(=O)c1cccnc1 [N, niacinamide] | 89.7 | 6539 | about 89.7% | 15.35 | −48.6 | 13 | 26 | 71 | 75 | – | – | – | – | – | –
nicotinamide riboside [NR] | 96.9 | 1971.5 | – | 14.31 | −52.1 | 205 | 594 | 1845 | 5176 | ~96.9 | – | – | – | – | –
OO [Hydrogen Peroxide, hydrogen peroxide, reference compound] | – | – | – | – | – | – | – | – | – | – | ~97.5 | 1556 | 97.5 | 8.96 | −70.0
